Data published in US20130072474A1, “TREATMENT OF DEMENTIA OF ALZHEIMER'S TYPE WITH MASITINIB” (AB SCIENCE, priority 2010, published 2013).

How the values were obtained:
[1] = system: patients suffering from mild to moderate dementia of Alzheimer's type; assay: Phase 2 study, CDR; assay type: in vivo, human; conditions: for CDR No change, rate of patients / CDR Response (Decrease >0), rate of patients / CDR Worsening (Increase >0), rate of patients / CDR score 0, rate of patients / CDR score 0.5, rate of patients / CDR score 1, rate of patients / CDR score 2, rate of patients / CDR score 3, rate of patients: ITT population, Observed Cases
Excerpt: A multicenter, randomized, double-blind, placebo-controlled, parallel-group phase 2 study evaluating the activity of masitinib given orally for 24 weeks has been performed in patients suffering from mild to moderate dementia of Alzheimer's type (protocol period completed, extension ongoing).
Patients: Patients enrolled in this study had dementia of Alzheimer's type (according to DSM IV criteria), probable Alzheimer's disease according to NINCDS-ADRDA criteria, MMSE≧12 and ≦26, and CDR of 1 or 2. […] Exclusion criteria included inadequate organ function (defined via blood test levels), dementia due to any other causes, uncontrolled depression, psychosis, delusions or delirium.
Treatment: In addition to a stable dose of acetylcholinesterase inhibitors and/or memantine, patients received masitinib or placebo, supplied as 100 and 200 mg tablets, per os for 24 weeks. Patients received masitinib or placebo initially at a daily total dose of 3 mg/kg or 6 mg/kg, administered twice daily with meals. Dose could be increased or decreased by 1.5 mg/kg/day depending on efficacy and toxicity assessments. Five patients were allocated to each masitinib dose for every three placebo patients. Treatment with any registered or putative cognitive enhancer or disease modifier (other than donepezil, galantamine, rivastigmine or memantine), or any investigational therapies was not allowed.
CDR: The CDR is a five-point categorical rating evaluating severity of dementia. The 5-point score is useful for globally staging the level of impairment: 0=No impairment, 0.5, 1, 2, and 3 indicate very mild, mild, moderate and severe dementia respectively, in the following six areas: memory, orientation, judgment, community affairs, home and hobbies, and personal care (Morris J C, 1997).
Statistical analyses: Efficacy was analyzed in the intent-to-treat (ITT) (all randomized patients, according to group of randomization) and per protocol (PP) (all patients without a major protocol deviation) populations. […] Efficacy criteria were analyzed using descriptive statistics, numbers and rates for categorical and discontinuous variables, parametric and non-parametric distribution elements for continuous variables.
Results are presented for the ITT population in the OC dataset (with LOCF for Centre #21 at Week 24).
The overall CDR score, calculated through the use of an algorithm, is useful for characterizing and tracking a patient's level of impairment/dementia: 0=Normal, 0.5=Very Mild Dementia, 1=Mild Dementia, 2=Moderate Dementia, 3=Severe Dementia.

Fyn tyrosine kinase = Fyn tyrosine kinase (Homo sapiens, UniProt P06241); assay: Fyn tyrosine kinase inhibition (preclinical data); assay type: biochemical
Sequence of Fyn tyrosine kinase (P06241 whole entry): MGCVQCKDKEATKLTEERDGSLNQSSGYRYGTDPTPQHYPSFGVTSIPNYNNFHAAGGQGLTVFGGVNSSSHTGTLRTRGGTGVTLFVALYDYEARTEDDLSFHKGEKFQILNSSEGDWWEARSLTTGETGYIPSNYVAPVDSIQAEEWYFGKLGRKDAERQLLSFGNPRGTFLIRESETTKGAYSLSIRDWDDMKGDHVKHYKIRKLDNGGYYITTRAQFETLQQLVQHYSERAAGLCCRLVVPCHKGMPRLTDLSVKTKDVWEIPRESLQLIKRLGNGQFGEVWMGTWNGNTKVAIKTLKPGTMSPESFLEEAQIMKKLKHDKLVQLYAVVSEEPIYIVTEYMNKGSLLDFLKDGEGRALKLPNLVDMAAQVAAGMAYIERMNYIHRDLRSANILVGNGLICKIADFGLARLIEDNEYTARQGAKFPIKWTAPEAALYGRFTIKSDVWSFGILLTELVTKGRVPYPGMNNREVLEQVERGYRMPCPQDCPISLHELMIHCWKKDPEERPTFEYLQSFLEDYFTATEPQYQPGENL

Structure (SMILES): Cc1ccc(NC(=O)c2ccc(CN3CCN(C)CC3)cc2)cc1Nc1nc(-c2cccnc2)cs1 [masitinib, 4-(4-methylpiperazin-1-ylmethyl)-N-[4-methyl-3-(4-pyridin-3ylthiazol-2-ylamino)phenyl]benzamide]
- CDR No change, rate of patients ([1]; W 4): 9 (90.0%)
- CDR Response (Decrease >0), rate of patients ([1]; W 4): 0 (0.0%)
- CDR Worsening (Increase >0), rate of patients ([1]; W 4): 1 (10.0%)
- CDR score 0, rate of patients ([1]; W 4): 0 (0.0%)
- CDR score 0.5, rate of patients ([1]; W 4): 0 (0.0%)
- CDR score 1, rate of patients ([1]; W 4): 7 (70.0%)
- CDR score 2, rate of patients ([1]; W 4): 3 (30.0%)
- CDR score 3, rate of patients ([1]; W 4): 0 (0.0%)
- CDR No change, rate of patients ([1]; W 8): 7 (87.5%)
- CDR Response (Decrease >0), rate of patients ([1]; W 8): 0 (0.0%)
- CDR Worsening (Increase >0), rate of patients ([1]; W 8): 1 (12.5%)
- CDR score 0, rate of patients ([1]; W 8): 0 (0.0%)
- CDR score 0.5, rate of patients ([1]; W 8): 0 (0.0%)
- CDR score 1, rate of patients ([1]; W 8): 6 (75.0%)
- CDR score 2, rate of patients ([1]; W 8): 2 (25.0%)
- CDR score 3, rate of patients ([1]; W 8): 0 (0.0%)
- CDR No change, rate of patients ([1]; W 12): 14 (82.4%)
- CDR Response (Decrease >0), rate of patients ([1]; W 12): 2 (11.8%)
- CDR Worsening (Increase >0), rate of patients ([1]; W 12): 1 (5.9%)
- CDR score 0, rate of patients ([1]; W 12): 0 (0.0%)
- CDR score 0.5, rate of patients ([1]; W 12): 1 (5.9%)
- CDR score 1, rate of patients ([1]; W 12): 15 (88.2%)
- CDR score 2, rate of patients ([1]; W 12): 1 (5.9%)
- CDR score 3, rate of patients ([1]; W 12): 0 (0.0%)
- CDR No change, rate of patients ([1]; W 24): 6 (66.7%)
- CDR Response (Decrease >0), rate of patients ([1]; W 24): 2 (22.2%)
- CDR Worsening (Increase >0), rate of patients ([1]; W 24): 1 (11.1%)
- CDR score 0, rate of patients ([1]; W 24): 0 (0.0%)
- CDR score 0.5, rate of patients ([1]; W 24): 2 (22.2%)
- CDR score 1, rate of patients ([1]; W 24): 6 (66.7%)
- CDR score 2, rate of patients ([1]; W 24): 1 (11.1%)
- CDR score 3, rate of patients ([1]; W 24): 0 (0.0%)
- CDR No change, rate of patients ([1]; W 24 LOCF center 21): 12 (75.0%)
- CDR Response (Decrease >0), rate of patients ([1]; W 24 LOCF center 21): 3 (18.8%)
- CDR Worsening (Increase >0), rate of patients ([1]; W 24 LOCF center 21): 6.3%
- CDR score 0, rate of patients ([1]; W 24 LOCF center 21): 0 (0.0%)
- CDR score 0.5, rate of patients ([1]; W 24 LOCF center 21): 2 (12.5%)
- CDR score 1, rate of patients ([1]; W 24 LOCF center 21): 13 (81.3%)
- CDR score 2, rate of patients ([1]; W 24 LOCF center 21): 1 (6.3%)
- CDR score 3, rate of patients ([1]; W 24 LOCF center 21): 0 (0.0%)
- CDR Worsening (Increase >0), rate of patients ([1]; W 24 LOCF center 21, listed as AB1010): 1 (6.3%)
- Frequency of patients with CDR Score 0.5-1 ([1]; Week 24): 94%
- IC50 (Fyn tyrosine kinase): 165 nM
